Data: ChEMBL document CHEMBL3763105, “Semisynthesis of new aphidicolin derivatives with high activity against Trypanosoma cruzi” (Bioorg Med Chem Lett, 2016)

Legend:
[1] = Cytotoxicity against mouse C3H cells after 72 hrs by MTS assay; assay type: cell-based
[2] = tested on: Trypanosoma cruzi; test: Antitrypanosomal activity against Trypanosoma cruzi Tulahuen amastigotes infected in mouse C3H cells after 72 hrs by microplate reader analysis; assay type: functional, organism-based
[3] = Selectivity index, ratio of IC50 for mouse C3H cells to IC50 for Trypanosoma cruzi Tulahuen amastigotes infected in mouse C3H cells; assay type: toxicity, cell-based; conditions: read-out: Ratio IC50

Row | IC50 [2] [nM] | Structure (SMILES) | IC50 [1] [nM] | selectivity ratio [3]
1 | 780 | C[C@]12COS(=O)O[C@H]1CC[C@]1(C)[C@@H]2CC[C@@H]2C[C@H]3C[C@]21CC[C@@]3(O)CO (some centres not stated) | > 100000 | > 100
2 | > 100000 | CC(C)(C)[Si](C)(C)OC[C@]1(O)CC[C@@]23C[C@@H]1C[C@H]2CC[C@@H]1[C@@](C)(CO[Si](C)(C)C(C)(C)C)[C@@H](O)CC[C@]13C |  | 

More lines, now with the values behind:

Row | Structure (SMILES) | IC50 [2] [nM] | IC50 [1] [nM] | selectivity ratio [3]
3 | CC(C)(C)[Si](C)(C)OC[C@]1(O)CC[C@@]23C[C@@H]1C[C@H]2CC[C@@H]1[C@@](C)(CO[Si](C)(C)C(C)(C)C)C(=O)CC[C@]13C | > 100000 |  | 
4 | C[C@]1(CO)/C(=N\O)CC[C@]2(C)[C@@H]1CC[C@@H]1C[C@H]3C[C@]12CC[C@@]3(O)CO | 1700 | 64500 | 37.9
5 | O=C(Cn1ccnc1[N+](=O)[O-])NCc1ccccc1 [BENZNIDAZOLE] | 3000 | > 100000 | > 100
6 | COc1cccc2c1C(=O)c1c(O)c3c(c(O)c1C2=O)C[C@@](O)(C(=O)CO)C[C@@H]3O[C@H]1C[C@H](N)[C@H](O)[C@H](C)O1 [DOXORUBICIN] |  | 40 | 
